{
  "source": "patent US8440632B2",
  "about": "“Protopanaxadiol-type ginsenoside compositions and uses thereof” (Raptor Therapeutics Inc., priority 2008, dated 2013)",
  "key": {"[1]": {"system": "alcohol dehydrogenase (ADH)", "experiment": "Alcohol dehydrogenase (ADH) activity, colorimetric assay", "format": "biochemical", "conditions": "5, 50 or 500 μg/mL, relative to ADH activity in the absence of ginsenoside (FIG. 1)", "method": "Ginsenosides Rb1, Rb2, Rc, Rd, Re and Rg1 were obtained from ChromaDex Inc., Irvine, Calif., USA. The ginsenosides were dissolved in DMSO to prepare a stock solution. Prior to performing an activity assay, portions of a ginsenosides stock solution were diluted in aqueous reaction buffer solution and from which samples were taken and assayed for activity.\nADH activity was measured in a colorimetric assay as described in Gibla and Gonzalex-Durante, J. Biochem. Biophys. Methods 1993, 26, 87-93, the contents of which are incorporated by reference herein in its entirety."}, "[2]": {"target": "T1, aldehyde dehydrogenase (ALDH) (Saccharomyces cerevisiae, UniProt P46367)", "T1 construct": "purchased Sigma-Aldrich A 6338", "T1 sequence (P46367 25-519)": "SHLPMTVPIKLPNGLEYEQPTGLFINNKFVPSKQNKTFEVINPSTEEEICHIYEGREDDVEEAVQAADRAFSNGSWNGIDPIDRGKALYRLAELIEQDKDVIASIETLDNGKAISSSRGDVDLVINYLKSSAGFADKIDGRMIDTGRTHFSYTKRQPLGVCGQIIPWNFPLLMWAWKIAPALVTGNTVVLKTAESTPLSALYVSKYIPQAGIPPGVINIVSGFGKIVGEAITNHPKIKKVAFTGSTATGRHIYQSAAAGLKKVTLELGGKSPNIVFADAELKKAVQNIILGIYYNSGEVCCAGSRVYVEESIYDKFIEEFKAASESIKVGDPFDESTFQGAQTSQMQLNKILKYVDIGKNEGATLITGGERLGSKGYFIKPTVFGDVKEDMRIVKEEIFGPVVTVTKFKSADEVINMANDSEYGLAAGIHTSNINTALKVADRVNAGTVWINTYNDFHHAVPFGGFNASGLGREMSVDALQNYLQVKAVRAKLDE", "experiment": "Aldehyde dehydrogenase (ALDH) activity assay, conversion of acetaldehyde into acetic acid", "format": "biochemical", "conditions": "5, 50 or 500 μg/mL, relative to ALDH activity in the absence of ginsenoside (FIG. 3)", "method": "Stock solutions of ginsenosides Rb1, Rb2, Rc, Rd, Re and Rg1 in DMSO as described above, were prepared. ALDH was obtained from Sigma-Aldrich (product no. A 6338). Enzyme activity assays were performed in vitro according to instructions supplied by the vendor as modified by the addition of test substances, which is based on assay described in Bostian et al., Biochemical Journal 1978, 173, 773-786, the contents of which are incorporated by reference herein in their entirety. This assay measures the conversion of acetaldehyde into acetic acid via […] by ALDH catalysis."}},
  "data": [
    {"smiles": "CC(C)=CCC[C@](C)(O[C@@H]1O[C@H](CO[C@@H]2OC[C@H](O)[C@H](O)[C@H]2O)[C@@H](O)[C@H](O)[C@H]1O)[C@H]1CC[C@]2(C)[C@@H]1[C@H](O)C[C@@H]1[C@@]3(C)CC[C@H](O[C@@H]4O[C@H](CO)[C@@H](O)[C@H](O)[C@H]4O[C@@H]4O[C@H](CO)[C@@H](O)[C@H](O)[C@H]4O)C(C)(C)[C@@H]3CC[C@]12C", "note": "[ginsenoside Rb2]", "values": [
      {"measurement": "effect on ADH activity", "setting": "[1]", "value": "reduced ADH activity"},
      {"measurement": "effect on ALDH activity", "setting": "[2]", "value": "increased ALDH activity"}
    ]},
    {"smiles": "CC(C)=CCC[C@](C)(O[C@@H]1O[C@H](CO[C@@H]2O[C@H](CO)[C@@H](O)[C@H](O)[C@H]2O)[C@@H](O)[C@H](O)[C@H]1O)[C@H]1CC[C@]2(C)[C@@H]1[C@H](O)C[C@@H]1[C@@]3(C)CC[C@H](O[C@@H]4O[C@H](CO)[C@@H](O)[C@H](O)[C@H]4O[C@@H]4O[C@H](CO)[C@@H](O)[C@H](O)[C@H]4O)C(C)(C)[C@@H]3CC[C@]12C", "note": "[ginsenoside Rb1]", "values": [
      {"measurement": "effect on ADH activity", "setting": "[1]", "value": "reduced ADH activity"},
      {"measurement": "effect on ALDH activity", "setting": "[2]", "value": "increased ALDH activity"}
    ]},
    {"smiles": "CC(C)=CCC[C@](C)(O[C@@H]1O[C@H](CO)[C@@H](O)[C@H](O)[C@H]1O)[C@H]1CC[C@]2(C)[C@@H]1[C@H](O)C[C@@H]1[C@@]3(C)CC[C@H](O[C@@H]4O[C@H](CO)[C@@H](O)[C@H](O)[C@H]4O[C@@H]4O[C@H](CO)[C@@H](O)[C@H](O)[C@H]4O)C(C)(C)[C@@H]3CC[C@]12C", "note": "[ginsenoside Rd]", "values": [
      {"measurement": "effect on ADH activity", "setting": "[1]", "value": "reduced ADH activity"},
      {"measurement": "effect on ALDH activity", "setting": "[2]", "value": "increased ALDH activity"}
    ]},
    {"smiles": "CC(C)=CCC[C@](C)(O[C@@H]1O[C@H](CO[C@@H]2O[C@@H](CO)[C@H](O)[C@H]2O)[C@@H](O)[C@H](O)[C@H]1O)[C@H]1CC[C@]2(C)[C@@H]1[C@H](O)C[C@@H]1[C@@]3(C)CC[C@H](O[C@@H]4O[C@H](CO)[C@@H](O)[C@H](O)[C@H]4O[C@@H]4O[C@H](CO)[C@@H](O)[C@H](O)[C@H]4O)C(C)(C)[C@@H]3CC[C@]12C", "note": "[ginsenoside Rc]", "values": [
      {"measurement": "effect on ADH activity", "setting": "[1]", "value": "reduced ADH activity"},
      {"measurement": "effect on ALDH activity", "setting": "[2]", "value": "increased ALDH activity"}
    ]},
    {"smiles": "CC(C)=CCC[C@](C)(O[C@@H]1O[C@H](CO)[C@@H](O)[C@H](O)[C@H]1O)[C@H]1CC[C@]2(C)[C@@H]1[C@H](O)C[C@@H]1[C@@]3(C)CC[C@H](O)C(C)(C)[C@@H]3[C@@H](O[C@@H]3O[C@H](CO)[C@@H](O)[C@H](O)[C@H]3O[C@@H]3O[C@@H](C)[C@H](O)[C@@H](O)[C@H]3O)C[C@]12C", "note": "[ginsenoside Re, reference compound]", "values": [
      {"measurement": "effect on ADH activity", "setting": "[1]", "value": "did not have a significant effect on ADH activity"},
      {"measurement": "effect on ALDH activity", "setting": "[2]", "value": "did not have a significant effect on ALDH activity"}
    ]},
    {"smiles": "CC(C)=CCC[C@](C)(O[C@@H]1O[C@H](CO)[C@@H](O)[C@H](O)[C@H]1O)[C@H]1CC[C@]2(C)[C@@H]1[C@H](O)C[C@@H]1[C@@]3(C)CC[C@H](O)C(C)(C)[C@@H]3[C@@H](O[C@@H]3O[C@H](CO)[C@@H](O)[C@H](O)[C@H]3O)C[C@]12C", "note": "[ginsenoside Rg1, reference compound]", "values": [
      {"measurement": "effect on ADH activity", "setting": "[1]", "value": "did not have a significant effect on ADH activity"},
      {"measurement": "effect on ALDH activity", "setting": "[2]", "value": "did not have a significant effect on ALDH activity"}
    ]}
  ]
}
